The values that follow come from US9499553B2 (CHUGAI SEIYAKU KABUSHIKI KAISHA, priority 2013, dated 2016).

One assay concerns the target T1, human NaPi-IIb (Homo sapiens, UniProt O95436).
T1 construct: expressed in transfected cells
T1 sequence (O95436 1-690): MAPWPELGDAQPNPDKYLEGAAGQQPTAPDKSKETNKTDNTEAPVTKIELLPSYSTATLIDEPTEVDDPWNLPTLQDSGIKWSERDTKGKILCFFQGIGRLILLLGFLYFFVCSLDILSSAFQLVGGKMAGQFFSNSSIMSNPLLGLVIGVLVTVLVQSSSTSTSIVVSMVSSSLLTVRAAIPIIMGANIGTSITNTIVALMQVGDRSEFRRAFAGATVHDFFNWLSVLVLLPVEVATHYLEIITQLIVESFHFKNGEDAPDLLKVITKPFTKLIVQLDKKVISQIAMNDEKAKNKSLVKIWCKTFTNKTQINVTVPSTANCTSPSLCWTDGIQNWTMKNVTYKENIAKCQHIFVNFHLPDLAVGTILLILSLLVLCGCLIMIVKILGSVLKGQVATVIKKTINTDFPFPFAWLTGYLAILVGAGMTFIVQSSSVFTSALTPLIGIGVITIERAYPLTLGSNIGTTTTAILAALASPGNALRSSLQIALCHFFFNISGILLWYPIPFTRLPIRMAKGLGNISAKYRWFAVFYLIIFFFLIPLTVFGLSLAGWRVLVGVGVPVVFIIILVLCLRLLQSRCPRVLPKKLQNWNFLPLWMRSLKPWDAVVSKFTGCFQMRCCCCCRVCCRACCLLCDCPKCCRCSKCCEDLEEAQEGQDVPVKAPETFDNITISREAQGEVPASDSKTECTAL
The experiment in a line: Inhibitory effect on 33PO4 uptake into human NaPi-IIb-expressing CHO cells. Type of assay: cell-based. Particulars: read-out: IC50. The method in brief:
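Stable human NaPi-IIb CHO line (G418-selected), plated and cultured overnight; ³³PO4 added in buffer A and uptake run at room temperature. Cells washed with ice-cold buffer A, then uptake counted by liquid scintillation.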

The next assay concerns the target T2, human PiT-2 (Homo sapiens, UniProt Q08357).
T2 construct: expressed in transfected cells; host or cells: CHO cells
T2 sequence (Q08357 1-652): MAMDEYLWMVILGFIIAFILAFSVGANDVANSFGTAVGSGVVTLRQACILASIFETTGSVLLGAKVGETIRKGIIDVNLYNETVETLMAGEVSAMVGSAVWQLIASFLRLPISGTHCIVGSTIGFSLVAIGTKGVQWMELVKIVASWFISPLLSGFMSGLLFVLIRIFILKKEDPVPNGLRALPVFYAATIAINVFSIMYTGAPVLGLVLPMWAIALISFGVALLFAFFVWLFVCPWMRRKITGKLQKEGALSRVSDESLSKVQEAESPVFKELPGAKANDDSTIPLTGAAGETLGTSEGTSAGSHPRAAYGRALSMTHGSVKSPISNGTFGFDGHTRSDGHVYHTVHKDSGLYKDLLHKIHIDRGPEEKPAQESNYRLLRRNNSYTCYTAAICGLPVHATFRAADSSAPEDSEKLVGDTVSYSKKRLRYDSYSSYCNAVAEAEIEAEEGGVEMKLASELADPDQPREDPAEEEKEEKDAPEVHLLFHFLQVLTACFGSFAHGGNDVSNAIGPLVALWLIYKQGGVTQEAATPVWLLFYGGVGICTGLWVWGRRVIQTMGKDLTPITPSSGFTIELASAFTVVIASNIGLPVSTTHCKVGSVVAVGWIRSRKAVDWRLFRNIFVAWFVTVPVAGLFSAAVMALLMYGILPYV
The experiment in a line: Inhibitory effect on 33PO4 uptake into human PiT-2-expressing CHO cells. The format is cell-based. The conditions noted are these: pH 6.5, read-out: IC50 against 33PO4 uptake into human PiT-2-expressing cells. The method in brief:
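CHO cells transfected with human PiT-2 or empty vector, then exposed to ^33PO4 at room temperature after compound preincubation. Uptake counted by scintillation. Inhibition computed from PiT-2 minus vector-cell uptake, relative to the DMSO control.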

Assay [1] concerns chronic kidney disease model rat. The experiment in a line: Suppressive effect on rise in serum creatinine concentration of chronic kidney disease model rat. Type of assay: in vivo. The conditions noted are these: dosage 0.3% in feed, 14 weeks. An excerpt: Test Example 7: Suppressive Effect on Rise in Serum Creatinine Concentration of Chronic Kidney Disease Model Rat
A group given feed non-supplemented with the test compound was used as a reference pathological group, and a group neither subjected to the kidney removal nor antibody administration and given feed non-supplemented with the test compound was used as a normal group. Fourteen weeks after the start of administration of the test compound, blood was collected from the abdominal aorta and serum was collected. As an indicator of renal damage, serum creatinine concentrations were measured by an enzyme assay (creatinase-sarcosine oxidase-POD method). The rate of suppression of a rise in serum creatinine concentration was determined according to the following expression: Rate (%) of suppression of a rise in serum creatinine concentration=(1−[(Serum creatinine concentration of the test compound-treated pathological group)−(Serum creatinine concentration of the normal group)]/[(Serum creatinine concentration of the reference pathological group)−(Serum creatinine concentration of the normal group)])×100

The test system is the same in assay [2]. The experiment in a line: Suppressive effect on calcium deposition in blood vessel of chronic kidney disease model rat. Particulars: thoracic aorta, dosage 0.3% in feed, 14 weeks. The format is in vivo. Here is the method: Test Example 9: Suppressive Effect on Calcium Deposition in Blood Vessel of Chronic Kidney Disease Model Rat
From the same animal as that in Test Example 7, the thoracic aorta was collected 14 weeks after the start of administration of the test compound, and the dry weight was measured. The measured dry thoracic aorta was subjected to ashing and dissolved in a certain amount of hydrochloric acid, and then the calcium concentration in the solution was measured using OCPC method to determine the amount of calcium per gram of the thoracic aorta dry weight (Katsumata K, Kusano K, Hirata M, Tsunemi K, Nagano N, Burke S K, Fukushima N. Sevelamer hydrochloride prevents ectopic calcification and renal osteodystrophy in chronic renal failure rats. Kidney Int. 2003 August; 64(2): 441-450.) The rate of suppression of calcium deposition in blood vessel was determined according to the following expression: Rate (%) of suppression of calcium deposition in blood vessel=(1−[(Amount of calcium per gram of dried blood vessel of the test compound-treated pathological group)−(Amount of calcium per gram of dried blood vessel of the normal group)]/[(Amount of calcium per gram of dried blood vessel of the reference pathological group)−(Amount of calcium per gram of dried blood vessel of the normal group)])×100

Consider `COCCN(C)CCOc1ccc(CN2C(=O)C(C(=O)Nc3ccc(C(F)(F)F)cc3-c3cc(C(F)(F)F)ncn3)=C(O)C3(CCCC3)N2C)c(F)c1F` [Example 14, 7-[[2,3-Difluoro-4-[2-[2-methoxyethyl(methyl)amino]ethoxy]phenyl]methyl]-10-hydroxy-6-methyl-8-oxo-N-[4-(trifluoromethyl)-2-[6-(trifluoromethyl)pyrimidin-4-yl]phenyl]-6,7-diazaspiro[4.5]dec-9-ene-9-carboxamide], for which the results for the IC50 on human NaPi-IIb and on human PiT-2 were 8.9 µM and 2.6 µM, respectively. The “Rate of inhibition (%) (suppression of a rise in serum creatinine concentration)” value in assay [1] was determined as 24%. For the same molecule, the “Rate of inhibition (%) (suppression of calcium deposition in blood vessel)” value in assay [2] was 100% 100%.
